From patent US8895277B2, “Legume isoprene synthase for production of isoprene” (Danisco US Inc., priority 2012, dated 2014) come the findings set out here.

The target of data set [1] is Populus alba isoprene synthase, P. alba variant 2 (Populus alba, UniProt Q50L36). In kind it is biochemical. The note with it: substrate DMAPP; 34° C.; Avg Value.
For data set [2], the target named is Populus alba isoprene synthase, P. alba variant 1 (Populus alba, UniProt Q50L36). It is filed as biochemical. To be noted: substrate DMAPP; 34° C.; Avg Value.
The subject of data set [3] is E. coli expressing A. hypogaea IspS. Description: DMAPP toxicity relief: growth in presence of MVA. The note with it: FIG. 13.
Data set [4] concerns E. coli expressing P. alba variant 1 IspS. Description: DMAPP toxicity relief: growth in presence of MVA. To be noted: 15 to 75 mM MVA; FIG. 13.
The subject of data set [5] is E. coli expressing P. alba variant 3 IspS. The experiment in a line: DMAPP toxicity relief: growth in presence of MVA. The note with it: FIG. 13.
Data set [6] has as its system E. coli expressing P. alba variant 2 IspS.
Substrate in data set [7]: CC(C)=CCOP(=O)(O)OP(=O)(O)O
Description: purified protein, by the assay type. To be noted: other: substrate DMAPP, 34° C., Avg Value.

A word on the Km: it is the concentration of substrate that gives half-maximal velocity.

Regarding `CC(C)=CCOP(=O)(O)OP(=O)(O)O` [DMAPP, 3,3-dimethylallyl diphosphate], the Km in data set [1] was determined as 2880 µM; in data set [2] it was 2790 µM.
Turning to `C[C@@](O)(CCO)CC(=O)O` [MVA, mevalonic acid], in data set [3], the “MVA concentration at which significant growth was seen” value lay in the range of 15 to 45 mM. For the same molecule, the “Growth inhibition by MVA” value in data set [4] was “growth was inhibited at any concentration of MVA tested”. Besides, the “MVA concentration at which growth was partially inhibited” value in data set [5] is listed as “at least 30 mM”. Besides, the “MVA concentration at which growth was inhibited” value in data set [6] is recorded as “higher than 15 mM”.

B1: Arachis hypogaea isoprene synthase (A. hypogaea IspS), SEQ ID NO: 3 (Arachis hypogaea) (protein)
chain: MNTRRSANYQPNLWDFEFLQSVENDLQVERLEERARKLEEEVRGLMKKVEIEPLSLLELMDNVERLGLTYKFEEDIKSALNNRIVPLLHHHTINKYGLHATALSFRFLRQHAFHVSPDVFESFKEEGKFKKEISGDVLGLLNLYETSYLGFEGETILDEARAFSATHLKNLLQTNQVQNKVMAEKVRHALELPYHRRVHRLEARWFIERYEQKEAHDGALLELAKLDFNMVQSVMKKELQELSRWWREIGLTSKLDFVRDRLMEVYFWALGMAPHPQLTECRKAVTKMFGLVTIIDDVYDVYGTLDELQLFTDAVDRWDVNAVETLPDYMKLCYLALYNSVNDTAYSTLREKGDNSLPHLAKSWRDLCKAFLQEAKWSNNKIIPPFDAYIRNASVSSSGGALLAPCYFSVTQDSTSQAIDSITNYHGIVRSSCAIFRLCNDLATSAAELERGETTNSITSYMTENGTTEEEARESLGKLIDQEWKKMNRDVVLESAYPNVFKEIAINMARVSHCTYQYGDGLGRPDDTAENRIKLSLIEPIPIN
For B1, the Michaelis-Menten constant (Km) in data set [7] amounted to 18300 µM.

B2: Populus alba isoprene synthase (P. alba IspS), wild type (WT) (Populus alba) (protein)
chain: MEARRSANYEPNSWDYDYLLSSDTDESIEVYKDKAKKLEAEVRREINNEKAEFLTLLELIDNVQRLGLGYRFESDIRGALDRFVSSGGFDAVTKTSLHGTALSFRLLRQHGFEVSQEAFSGFKDQNGNFLENLKEDIKAILSLYEASFLALEGENILDEAKVFAISHLKELSEEKIGKELAEQVNHALELPLHRRTQRLEAVWSIEAYRKKEDANQVLLELAILDYNMIQSVYQRDLRETSRWWRRVGLATKLHFARDRLIESFYWAVGVAFEPQYSDCRNSVAKMFSFVTIIDDIYDVYGTLDELELFTDAVERWDVNAINDLPDYMKLCFLALYNTINEIAYDNLKDKGENILPYLTKAWADLCNAFLQEAKWLYNKSTPTFDDYFGNAWKSSSGPLQLVFAYFAVVQNIKKEEIENLQKYHDTISRPSHIFRLCNDLASASAEIARGETANSVSCYMRTKGISEELATESVMNLIDETWKKMNKEKLGGSLFAKPFVETAINLARQSHCTYHNGDAHTSPDELTRKRVLSVITEPILPFER
For B2, the Km in data set [7] was determined as 2830 µM.
